According to paper PMC8430629, “Anti-Cancer Effects of Cyclic Peptide ALOS4 in a Human Melanoma Mouse Model” (International Journal of Molecular Sciences, 2021):
Where a SMILES comes first, the peptide text is derived from it.

Key:
[1] = test system: ICR mice; assay: Repeated IV dose toxicity assessment in cancer-free ICR mice
Procedure: Acute single or repeated doses of ALOS4 at 10, 30, 90, 180, or 360 mg/kg were administered intravenously to uninoculated (nominally cancer-free) ICR mice. Body weight, rectal temperature, and survival were evaluated for 14 days following injections. Mice were also evaluated for locomotory and anxiety-like behaviors (open-field and EPM) on treatment day 14.

[2] = test system: ICR mice; assay: Complete blood count after single IV dose; type: in vivo; conditions: for RBC / HGB / MCH / MCHC / Hematocrit / MCV / Platelets / WBC: mean, n = 5; for RBC: normal range 7.31–10.03; for HGB: normal range 13.1–16.2; for MCH: normal range 15–18; for MCHC: normal range 33.7–36.4; for Hematocrit: normal range 36.8–48.7; for MCV: normal range 46.0–50.9; for Platelets: normal range 674–1675; for WBC: blood 24 h post-injection, normal range 6.5–24.5
Procedure: (§1) ICR mice were treated with single IV injections of ALOS4 (30, 90, or 180 mg/kg) and blood samples were collected at 24 h post-injection to EDTA and serum tubes. Complete blood cell count (CBC) and blood chemistry analyses were performed for saline and ALOS4 treatment groups at a certified animal laboratory (Herzliya Medical Center, Herzliya, Israel).

[3] = test system: ICR mice; assay: Plasma biochemistry after single IV dose; type: in vivo; conditions: 24 h, mean, n = 5; for Total Bilirubin: normal range 0.16–0.32; for Creatinine: normal range 0.2–0.4; for Globulin: normal range 1.4–2.0; for Alb: normal range 3.3–4.0; for TP: normal range 4.7–5.8; for Phosphorus: normal range 6.4–11.3; for Calcium: normal range 9.8–10.8; for Urea: normal range 39–62; for Cholesterol: normal range 56–133; for Glucose: normal range 169–282
Procedure: as §1

[4] = Acid/base and temperature stability; type: physicochemical; conditions: 10 µM in saline, pH 3.4, 4.4, 5.4, 6.4, 7.4, 9.4; 4, 25, 37 °C; 1 or 24 h; polypropylene tubes, LC-MS, n = 3
Procedure: (§2) Adhesiveness to inert materials was measured for ALOS4 0.9% NaCl(aq) solution in concentrations of 1, 3 10, 30, or 100 µM and incubated in standard laboratory polypropylene microtubes for 60 min at room temperature. Solutions were transferred to either polypropylene LC vials or borosilicate glass LC vials. Optimal formulation stability of ALOS4 was analyzed in either saline solution (0.9% NaCl) or saline solution containing 0.1% tween 80 (polysorbate; Sigma-Aldrich, Cat#P1754, Darmstadt, Germany) at concentrations of 0.5, 5, 50, 500, or 5000 pmol/µL. Solutions were incubated in standard polypropylene tubes for 60 min at room temperature. Acid/base stability was measured for ALOS4 formulated in saline at a concentration of 10 µM and incubated for 1 or 24 h at 3.4, 4.4, 5.4, 6.4, 7.4, or 9.4 pH at temperatures of 4, 25, or 37 °C. Recovery of ALOS4 following these materials assays was assessed by LC-MS.

[5] = Formulation stability, saline vs saline with 0.1% Tween-80; type: physicochemical; conditions: 0.5-5000 pmol/µL, 60 min, room temperature (25 °C), polypropylene tubes, LC-MS, n = 3
Procedure: as §2

[6] = test system: ICR mice; assay: Open field test; type: in vivo
Procedure: To evaluate the effect of ALOS4 on mouse locomotor activity, we used the open field (OF) behavioral test. This assay consists of an arena (30 × 40 cm) with no grid markings and uses an infrared imaging system. […] Each mouse was placed individually in the center of the arena and evaluated for 6 min. Arena center dwell time versus arena border dwell time, as well as total traveled distance, were recorded.

CC(C)C[C@@H]1NC(=O)[C@H](CO)NC(=O)CNC(=O)[C@H](C)NC(=O)[C@H](CO)NC(=O)[C@H](CO)NC(=O)[C@@H](N)CSSC[C@@H](C(=O)O)NC(=O)[C@H](Cc2ccccc2)NC1=O [ALOS4, H-cycl(Cys-Ser-Ser-Ala-Gly-Ser-Leu-Phe-Cys)-OH] (HELM PEPTIDE1{C.S.S.A.G.S.L.F.C}$PEPTIDE1,PEPTIDE1,1:R3-9:R3$$$V2.0)
weight-gain ([1]; IV every other day over 21 days (ten doses), 10, 30, 90, 180, 360 mg/kg, n = 5, vs control): no alterations in weight-gain | body temperature ([1]; IV every other day over 21 days, 10-360 mg/kg, rectal, 30 min after injection, n = 5): no alterations | necropsy assessment for organ damage ([1]; histology of liver, spleen, kidney, lungs, brain, repeated IV 10-360 mg/kg): did not reveal any overt signs of tissue damage or inflammation | 21-day survival ([1]; maximum tested repeated IV dose 360 mg/kg, n = 5): 100% | clinical signs ([1]; repeated IV 10-360 mg/kg): No adverse overt clinical signs were observed | decrease in WBC count ([2]; ICR mice, single IV 180 mg/kg, 24 h): 40% | RBC ([2]; single IV 30 mg/kg, 24 h): 9.16 ± 0.3 10^6/µL | HGB ([2]; single IV 30 mg/kg, 24 h): 14.3 ± 0.6 g/dL | MCH ([2]; single IV 30 mg/kg, 24 h): 15.6 ± 0.2 pg | MCHC ([2]; single IV 30 mg/kg, 24 h): 32.54 ± 0.23 g/dL | Hematocrit ([2]; single IV 30 mg/kg, 24 h): 43.96 ± 1.9% | MCV ([2]; single IV 30 mg/kg, 24 h): 47.96 ± 0.6 fL | Platelets ([2]; single IV 30 mg/kg, 24 h): 582.4 ± 132 10^3/µL | WBC ([2]; single IV 30 mg/kg): 4.51 ± 1.3 10^3/µL | RBC ([2]; single IV 90 mg/kg, 24 h): 9.78 ± 0.3 10^6/µL | HGB ([2]; single IV 90 mg/kg, 24 h): 15.42 ± 0.5 g/dL | MCH ([2]; single IV 90 mg/kg, 24 h): 15.76 ± 0.15 pg | MCHC ([2]; single IV 90 mg/kg, 24 h): 32.2 ± 0.4 g/dL | Hematocrit ([2]; single IV 90 mg/kg, 24 h): 47.88 ± 1.1% | MCV ([2]; single IV 90 mg/kg, 24 h): 48.96 ± 0.24 fL | Platelets ([2]; single IV 90 mg/kg, 24 h): 770.2 ± 189 10^3/µL | WBC ([2]; single IV 90 mg/kg): 6.07 ± 1.2 10^3/µL | RBC ([2]; single IV 180 mg/kg, 24 h): 8.02 ± 0.6 10^6/µL | HGB ([2]; single IV 180 mg/kg, 24 h): 13.2 ± 1.04 g/dL | MCH ([2]; single IV 180 mg/kg, 24 h): 16.42 ± 0.2 pg | MCHC ([2]; single IV 180 mg/kg, 24 h): 32.88 ± 0.4 g/dL | Hematocrit ([2]; single IV 180 mg/kg, 24 h): 40.12 ± 3.15% | MCV ([2]; single IV 180 mg/kg, 24 h): 49.96 ± 0.32 fL | Platelets ([2]; single IV 180 mg/kg, 24 h): 661.8 ± 160.5 10^3/µL | WBC ([2]; single IV 180 mg/kg): 3.2 ± 0.06 10^3/µL | Total Bilirubin ([3]; single IV 30 mg/kg): 0.11 ± 0.02 mg/dL | Creatinine ([3]; single IV 30 mg/kg): 0.26 ± 0.014 mg/dL | Globulin ([3]; single IV 30 mg/kg): 1.87 ± 0.07 g/dL | Alb ([3]; single IV 30 mg/kg): 4.3 ± 0.14 g/dL | TP ([3]; single IV 30 mg/kg): 6.17 ± 0.18 g/dL | Phosphorus ([3]; single IV 30 mg/kg): 8.6 ± 0.56 mg/dL | Calcium ([3]; single IV 30 mg/kg): 10.29 ± 0.11 mg/dL | Urea ([3]; single IV 30 mg/kg): 46.08 ± 1.7 mg/dL | Cholesterol ([3]; single IV 30 mg/kg): 108.2 ± 9.5 mg/dL | Glucose ([3]; single IV 30 mg/kg): 169.8 ± 6.9 mg/dL | Total Bilirubin ([3]; single IV 90 mg/kg): 0.14 ± 0.02 mg/dL | Creatinine ([3]; single IV 90 mg/kg): 0.25 ± 0.06 mg/dL | Globulin ([3]; single IV 90 mg/kg): 2.02 ± 0.07 g/dL | Alb ([3]; single IV 90 mg/kg): 4.3 ± 0.06 g/dL | TP ([3]; single IV 90 mg/kg): 6.32 ± 0.13 g/dL | Phosphorus ([3]; single IV 90 mg/kg): 9.53 ± 0.4 mg/dL | Calcium ([3]; single IV 90 mg/kg): 10.38 ± 0.29 mg/dL | Urea ([3]; single IV 90 mg/kg): 48.23 ± 3.2 mg/dL | Cholesterol ([3]; single IV 90 mg/kg): 142.25 ± 13.7 mg/dL | Glucose ([3]; single IV 90 mg/kg): 170.75 ± 10.7 mg/dL | Total Bilirubin ([3]; single IV 180 mg/kg): 0.11 ± 0.03 mg/dL | Creatinine ([3]; single IV 180 mg/kg): 0.27 ± 0.02 mg/dL | Globulin ([3]; single IV 180 mg/kg): 1.59 ± 0.4 g/dL | Alb ([3]; single IV 180 mg/kg): 4.36 ± 0.024 g/dL | TP ([3]; single IV 180 mg/kg): 6.28 ± 0.09 g/dL | Phosphorus ([3]; single IV 180 mg/kg): 8.44 ± 0.75 mg/dL | Calcium ([3]; single IV 180 mg/kg): 10.42 ± 0.1 mg/dL | Urea ([3]; single IV 180 mg/kg): 46.02 ± 3.9 mg/dL | Cholesterol ([3]; single IV 180 mg/kg): 141.8 ± 9.1 mg/dL | Glucose ([3]; single IV 180 mg/kg): 183.2 ± 14.3 mg/dL | stability (recoverability) [4]: 90–100% | reduction of peptide stability in saline containing 0.1% Tween-80 vs 0.9% NaCl only [5]: 1.2 fold | total traveled distance, open field ([6]; IV acute single dose 180 mg/kg, n = 5, Bonferroni p = 0.0329): only an exception for total traveled distance | locomotor activity, open field ([6]; IV acute single dose 30, 90, 180 mg/kg, n = 5, central arena dwell time): did not affect locomotor activity in general
